Laboratory results from patent publication US10159640B2, “Prebiotic oral care compositions containing amino acids” (COLGATE-PALMOLIVE COMPANY, priority 2013, dated 2018).

Experiments:
Type in all cases: cell-based
Streptococcus sobrinus = assay: Metabolic activity, Biolog phenotype microarray; details: control without dipeptide = 1
In short: (§1)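 Each species, grown 48 h anaerobically on blood agar, was suspended in IF-0 fluid with tetrazolium Redox Dye D, succinate and ferric citrate, then dispensed onto dipeptide-preloaded plates. Incubated anaerobically at 37° C; OD 492 nm read at 24 and 48 h versus no-dipeptide controls; mean of three biological replicates.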

Actinomyces viscosus = assay: Metabolic activity, Biolog phenotype microarray; details: control without dipeptide = 1
In short: as §1

Actinomyces naeslundii = assay: Metabolic activity, Biolog phenotype microarray; details: control without dipeptide = 1
In short: as §1

Capnocytophaga sputigena = assay: Metabolic activity, Biolog phenotype microarray; details: control without dipeptide = 1
In short: as §1

[1] = tested on: Aggregatibacter actinomycetemcomitans; assay: Metabolic activity, Biolog phenotype microarray; details: control without dipeptide = 1
In short: as §1

Streptococcus mutans = assay: Metabolic activity, Biolog phenotype microarray; details: control without dipeptide = 1
In short: as §1

Streptococcus gordonii = assay: Metabolic activity, Biolog phenotype microarray; details: control without dipeptide = 1
In short: as §1

Prevotella intermedia = assay: Metabolic activity, Biolog phenotype microarray; details: control without dipeptide = 1
In short: as §1

Streptococcus sanguinis = assay: Metabolic activity, Biolog phenotype microarray; details: control without dipeptide = 1
In short: as §1

Veillonella parvula = assay: Metabolic activity, Biolog phenotype microarray; details: control without dipeptide = 1
In short: as §1

Streptococcus salivarius = assay: Metabolic activity, Biolog phenotype microarray; details: control without dipeptide = 1
In short: as §1

Tannerella forsythia = assay: Metabolic activity, Biolog phenotype microarray; details: control without dipeptide = 1
In short: as §1

Streptococcus mitis = assay: Metabolic activity, Biolog phenotype microarray; details: control without dipeptide = 1
In short: as §1

Porphyromonas gingivalis = assay: Metabolic activity, Biolog phenotype microarray; details: control without dipeptide = 1
In short: as §1

Fusobacterium nucleatum = assay: Metabolic activity, Biolog phenotype microarray; details: control without dipeptide = 1
In short: as §1

[2] = tested on: beneficial oral bacteria and pathogenic oral bacteria; assay: Metabolic activity, whole panel: prebiotic effect
In short: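 Biolog phenotype microarrays with dipeptide-preloaded wells; each species suspended in IF-0 with Redox Dye Mix D (85% transmittance) plus succinate/ferric citrate, incubated anaerobically at 37° C. Tetrazolium reduction read at 492 nm at 24 and 48 h versus no-dipeptide controls; values are means of three biological replicates.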

Ser-Leu
metabolic activity: OD 492 nm divided by OD of control (Streptococcus sobrinus; 24 hrs): 1.4887 | metabolic activity: OD 492 nm divided by OD of control (Streptococcus sobrinus; 48 hrs): 2.0704 | metabolic activity: OD 492 nm divided by OD of control (Actinomyces viscosus; 24 hrs): 2.2523 | metabolic activity: OD 492 nm divided by OD of control (Actinomyces viscosus; 48 hrs): 2.5540 | metabolic activity: OD 492 nm divided by OD of control (Actinomyces naeslundii; 24 hrs): 1.4949 | metabolic activity: OD 492 nm divided by OD of control (Actinomyces naeslundii; 48 hrs): 1.8831 | metabolic activity: OD 492 nm divided by OD of control (Capnocytophaga sputigena; 24 hrs): 1.9645 | metabolic activity: OD 492 nm divided by OD of control (Capnocytophaga sputigena; 48 hrs): 1.6522 | metabolic activity: OD 492 nm divided by OD of control ([1]; 24 hrs): 1.6871 | metabolic activity: OD 492 nm divided by OD of control ([1]; 48 hrs): 2.2912 | metabolic activity: OD 492 nm divided by OD of control (Streptococcus mutans; 24 hrs): 1.6244 | metabolic activity: OD 492 nm divided by OD of control (Streptococcus mutans; 48 hrs): 2.2977 | metabolic activity: OD 492 nm divided by OD of control (Streptococcus gordonii; 24 hrs): 1.5333 | metabolic activity: OD 492 nm divided by OD of control (Streptococcus gordonii; 48 hrs): 1.8912 | metabolic activity: OD 492 nm divided by OD of control (Prevotella intermedia; 24 hrs): 1.5403 | metabolic activity: OD 492 nm divided by OD of control (Prevotella intermedia; 48 hrs): 1.8484 | metabolic activity: OD 492 nm divided by OD of control (Streptococcus sanguinis; 24 hrs): 1.2625 | metabolic activity: OD 492 nm divided by OD of control (Streptococcus sanguinis; 48 hrs): 1.6049 | metabolic activity: OD 492 nm divided by OD of control (Veillonella parvula; 24 hrs): 1.4153 | metabolic activity: OD 492 nm divided by OD of control (Veillonella parvula; 48 hrs): 1.4281 | metabolic activity: OD 492 nm divided by OD of control (Streptococcus salivarius; 24 hrs): 1.4865 | metabolic activity: OD 492 nm divided by OD of control (Streptococcus salivarius; 48 hrs): 2.0833 | metabolic activity: OD 492 nm divided by OD of control (Tannerella forsythia; 24 hrs): 1.3950 | metabolic activity: OD 492 nm divided by OD of control (Tannerella forsythia; 48 hrs): 1.8466 | metabolic activity: OD 492 nm divided by OD of control (Streptococcus mitis; 24 hrs): 1.6052 | metabolic activity: OD 492 nm divided by OD of control (Streptococcus mitis; 48 hrs): 2.0461 | metabolic activity: OD 492 nm divided by OD of control (Porphyromonas gingivalis; 24 hrs): 1.4626 | metabolic activity: OD 492 nm divided by OD of control (Porphyromonas gingivalis; 48 hrs): 1.8440 | metabolic activity: OD 492 nm divided by OD of control (Fusobacterium nucleatum; 24 hrs): 1.4813 | metabolic activity: OD 492 nm divided by OD of control (Fusobacterium nucleatum; 48 hrs): 1.7358 | prebiotic effects (metabolic activity) ([2]; 24 hrs, threshold value of 2): exhibited prebiotic effects | speed of metabolism by beneficial versus pathogenic bacteria ([2]; value of 2 reached at 24 hrs for beneficial but not pathogenic bacteria): metabolized faster by the beneficial bacteria than by the pathogenic bacteria
